Measurements: patent publication US20120122820A1, “PRODRUGS AND THE USE THEREOF” (Bayer Schering Pharma Aktiengesellschaft, priority 2007, published 2012)
Structures can show the parent of a compound that is named as a salt.

Experiment: Stability in buffer at various pH values
Format: physicochemical
Protocol: 0.3 mg of the test substance is weighed into a 2 ml HPLC vial and 0.5 ml of acetonitrile or acetonitrile/DMSO (9:1) is added. The substance is dissolved by putting the sample vessel in an ultrasonic bath for about 10 seconds. Then 0.5 ml of the respective (buffer) solution is added, and the sample is again treated in the ultrasonic bath.
• pH 4: 1 liter of Millipore water is adjusted to pH 4.0 with 1 N hydrochloric acid; • pH 5: 0.096 mol of citric acid and 0.2 mol of sodium hydroxide ad 1 liter of water; • pH 7.4: 90.0 g of sodium chloride, 13.61 g of potassium dihydrogen phosphate and 83.35 g of 1 N sodium hydroxide solution are made up to 1 liter with water; this solution is then further diluted 1:10 with Millipore water. • pH 8: 0.013 mol of borax and 0.021 mol of hydrochloric acid ad 1 liter of water.
5 μl portions of the sample solution are analyzed by HPLC for their content of unchanged test substance, and of parent substance (A) produced, every hour over a period of 24 hours at 37° C. The percentage areas of the appropriate peaks are used for quantification.
HPLC method for Examples 1-21:
Agilent 1100 with DAD (G1314A), binary pump (G1312A), autosampler (G1329A), column oven (G1316A), thermostat (G1330A); column: Kromasil 100 C18, 60 mm×2.1 mm, 3.5 μm; column temperature: 30° C.; eluent A: water+5 ml of perchloric acid/liter, eluent B: acetonitrile; gradient: 0-1.0 min 98% A, 2% B; 1.0-9.0 min 2% A, 98% B; 9.0-13.0 min 2% A, 98% B; 13.0-13.5 min 98% A, 2% B; 13.5-15.0 min 98% A, 2% B; flow rate: 0.75 ml/min; UV detection: 210 nm.
HPLC method for Examples 22-40:
The ratios of the peak areas (F) at the respective time points in relation to the peak areas at the starting time are shown in Table 3 for representative exemplary embodiments: […]

Row | SMILES | % test substance after 4 h [F(t = 4 h) × 100/F(t = 0 h)] (pH 4, 37° C.) [%] | % test substance after 24 h [F(t = 24 h) × 100/F(t = 0 h)] (pH 4, 37° C.) [%] | % test substance after 4 h [F(t = 4 h) × 100/F(t = 0 h)] (pH 7.4, 37° C.) [%] | % test substance after 24 h [F(t = 24 h) × 100/F(t = 0 h)] (pH 7.4, 37° C.) [%] | % test substance after 24 h [F(t = 24 h) × 100/F(t = 0 h)] (pH 4, 37° C., dihydrochloride) [%] | % test substance after 24 h [F(t = 24 h) × 100/F(t = 0 h)] (pH 7.4, 37° C., dihydrochloride) [%] | % test substance after 4 h [F(t = 4 h) × 100/F(t = 0 h)] (pH 8, 37° C.) [%] | % test substance after 24 h [F(t = 24 h) × 100/F(t = 0 h)] (pH 8, 37° C.) [%]
1 | N#Cc1c(N)nc(SCc2csc(-c3ccc(Cl)cc3)n2)c(C#N)c1-c1ccc(OCCOC(=O)CCC(=O)O)cc1 [Example 28, 2-Hydroxy-N,N,N-trimethylethanaminium 4-(2-{4-[2-amino-6-({[2-(4-chlorophenyl)-1,3-thiazol-4-yl]methyl}thio)-3,5-dicyanopyridin-4-yl]phenoxy}ethoxy) 4-oxobutanoate] | 100 | 100 | 100 | 100 |  |  |  | 
2 | CC(C)[C@H](N)C(=O)OCCOc1ccc(-c2c(C#N)c(N)nc(SCc3csc(-c4ccc(Cl)cc4)n3)c2C#N)cc1 [Example 23, 2-{4-[2-Amino-6-({[2-(4-chlorophenyl)-1,3-thiazol-4-yl]methyl}thio)-3,5-dicyanopyridin-4-yl]-phenoxy}ethyl L-valinate dihydrochloride] | 100 | 99 | 100 | 96 |  |  |  | 
3 | CN(C)CC(=O)Nc1nc(SCc2csc(-c3ccc(Cl)cc3)n2)c(C#N)c(-c2ccc(OCCOC(=O)CN(C)C)cc2)c1C#N [Example 35, 2-(4-{2-({[2-(4-Chlorophenyl)-1,3-thiazol-4-yl]methyl}thio)-3,5-dicyano-6-[(N,N-dimethylglycyl)-amino]pyridin-4-yl}phenoxy)ethyl N,N-dimethylglycinate dihydrochloride] |  |  |  |  | 100 | 98 |  | 
4 | N#Cc1c(N)nc(SCc2csc(-c3ccc(Cl)cc3)n2)c(C#N)c1-c1ccc(OCCOC(=O)[C@@H](N)Cc2ccccc2)cc1 [Example 16, 2-{4-[2-Amino-6-({[2-(4-chlorophenyl)-1,3-thiazol-4-yl]methyl}thio)-3,5-dicyanopyridin-4-yl]-phenoxy}ethyl L-phenylalaninate hydrochloride] | 100 | 100 |  |  |  |  | 100 | 100
5 | CN(C)CC(=O)Nc1nc(SCc2csc(-c3ccc(Cl)cc3)n2)c(C#N)c(-c2ccc(OCCOC(=O)CN(C)C)cc2)c1C#N [Example 34, 2-(4-{2-({[2-(4-Chlorophenyl)-1,3-thiazol-4-yl]methyl}thio)-3,5-dicyano-6-[(N,N-dimethylglycyl)-amino]pyridin-4-yl}phenoxy)ethyl N,N-dimethylglycinate] | 100 | 97 | 100 | 97 |  |  |  | 
6 | N#Cc1c(N)nc(SCc2csc(-c3ccc(Cl)cc3)n2)c(C#N)c1-c1ccc(OCCOC(=O)[C@@H](N)CCCCN)cc1 [Example 14, 2-{4-[2-Amino-6-({[2-(4-chlorophenyl)-1,3-thiazol-4-yl]methyl}thio)-3,5-dicyanopyridin-4-yl]-phenoxy}ethyl L-lysinate dihydrochloride] | 100 | 100 |  |  |  |  | 96 | 76
